Measurements taken from PubChem BioAssay (NCI).
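Following 48 hours of exposure in 96-well plates, responses at five concentrations were used to interpolate endpoints linearly. GI50 is the concentration that inhibits growth by half. TGI marks complete inhibition of growth.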

Assays:
Assay in all cases: NCI tumour cell line growth inhibition, 48 h
HCC-2998 colon = system: HCC-2998 colon
HCT-116 colon = system: HCT-116 colon
HCT-15 colon = system: HCT-15 colon
HS 578T breast = system: HS 578T breast
NCI/ADR-RES ovarian = system: NCI/ADR-RES ovarian
OVCAR-8 ovarian = system: OVCAR-8 ovarian
PC-3 prostate = system: PC-3 prostate
SK-MEL-28 melanoma = system: SK-MEL-28 melanoma
T-47D breast = system: T-47D breast
U251 CNS = system: U251 CNS

| Structure (SMILES) | GI50 (HCC-2998 colon) [µM] | TGI (HCC-2998 colon) [µM] | GI50 (HCT-116 colon) [µM] | TGI (HCT-116 colon) [µM] | GI50 (HCT-15 colon) [µM] | TGI (HCT-15 colon) [µM] | GI50 (HS 578T breast) [µM] | TGI (HS 578T breast) [µM] | GI50 (NCI/ADR-RES ovarian) [µM] | TGI (NCI/ADR-RES ovarian) [µM] | GI50 (OVCAR-8 ovarian) [µM] | TGI (OVCAR-8 ovarian) [µM] | GI50 (PC-3 prostate) [µM] | TGI (PC-3 prostate) [µM] | GI50 (SK-MEL-28 melanoma) [µM] | TGI (SK-MEL-28 melanoma) [µM] | GI50 (T-47D breast) [µM] | TGI (T-47D breast) [µM] | GI50 (U251 CNS) [µM] | TGI (U251 CNS) [µM] |
| --- | --- | --- | --- | --- | --- | --- | --- | --- | --- | --- | --- | --- | --- | --- | --- | --- | --- | --- | --- | --- |
| N#C/C(=C\c1ccc(Br)cc1)n1nnc2ccccc21 | 1.51 | 3.34 | 0.518 | 1.93 | 0.273 | 3.03 | 2.63 | 14 | 0.323 | 11 | 0.788 | 13.6 | 0.47 | 2.3 | 0.94 | 3.54 | 0.376 | 4.74 | 1.1 | 2.67 |
| COC1=C(Br)C(=O)C2=C(C1=O)C1C3=C(C(=O)C=CC3=O)C2c2ccccc21 (stereo not given) | 0.565 | 19.5 | 5.91 | > 100 | 20 | 42.6 | 4.82 | > 100 | 18.8 | 61.5 | 24.3 | > 100 | 4.35 | 25.6 | 30.7 | > 100 | 3.16 | 21.7 | 4.31 | 22.2 |
| COc1cc(/C=C2\C(=O)Nc3cccc(Cl)c32)cc(OC)c1OC | > 100 | > 100 | > 100 | > 100 | > 100 | > 100 | > 100 | > 100 | > 100 | > 100 | > 100 | > 100 | > 100 | > 100 | > 100 | > 100 | > 100 | > 100 | 41 | > 100 |
| C/C(=N\N=C(N)N)C(CN(C)C)C(c1ccccc1)c1c(O)c2ccccc2oc1=O (stereo not given) |  | > 100 |  | > 100 |  | > 100 |  | > 100 |  | > 100 |  | > 100 |  | > 100 |  | > 100 |  | > 100 |  | > 100 |
| COc1cc2c(cc1OCCCCOc1ccc(-c3nc4ccccc4s3)cc1)N=C[C@@H]1CCCN1C2=O | 0.82 | 2.28 | 0.511 | 1.62 | 1.08 | 3.89 | 0.891 | 4.43 | 1.49 | 5.17 | 1.19 | 7.98 | 0.63 | 2.11 | 2.18 | 4.95 | 0.339 | 1.45 | 0.534 | 1.85 |
| NS(=O)(=O)c1ccc(NC(=O)c2cccc3cc4ccccc4nc23)cc1 |  | > 100 |  | > 100 |  | > 100 |  | > 100 |  | > 100 |  | > 100 |  | > 100 |  | > 100 |  | > 100 |  | > 100 |
